Data reported in US6440946B1, “Multiple-agents-binding compound, production and use thereof” (Takeda Chemical Industries, Ltd., priority 1999, dated 2002).

Tests used:
[1] = system: HIV-1 IIIB (HTLV-IIIB) virus in CEMM-SS cells; assay: Anti-HIV activity: prevention of death of HIV-infected T cell lymphocytes (MTT method); assay type: cell-based, HIV type 1 virus; settings: 6 days
Procedure: Anti-HIV activity of the compounds of the present invention was evaluated according to the method described below.
The inhibitory effect on virus particle formation of HIV virus with which T cell lymphocytes were infected was evaluated according to ability to prevent T cell lymphocytes infected with said HIV virus from dying.
According to the test method described in the literature (O. S. Weislow et al., J. Natl. Cancer Inst., 81, 577 (1989), etc.), anti-HIV activity of the compounds of the present invention was evaluated. As the T cell lymphocytes, CEMM-SS cells were used. As the HIV virus, HIV-1 IIIB (HTLV-IIIB) virus which is HIV type 1 virus was used. On 96 well microtiter plate containing 200 μl of culture medium (RPMI-1640 medium containing 50 μg/ml of gentamicin and 10% fetal calf serum), determined concentration of Test Compound and HIV-1 IIIB virus (the mount of virus per well is that necessary for completely killing infected cells 6 days after infection), CEMM-SS cell (2.5×10^4 cells/ml) were inoculated and cultivated at 37° C. for 6 days in the incubator containing 5% CO2. Thereafter, the number of living cells was determined by the MTT method (R. Pauwels et al., J. Virol. Methods, 20, 309 (1988), etc.), and the determined value was defined as (ODT)HIV. HIV-non-infected CEMM-SS cells and HIV-infected CEMM-SS cells were respectively cultivated under the same conditions provided that the concentration of Test Compound was zero. Thereafter, the number of living cells was determined, and the respectively determined value was defined as (ODC)MOCK and (ODC)HIV. Using these values, (ODT)HIV, (ODC)MOCK and (ODC)HIV, inhibitory rate, ratio preventing T cell lymphocytes infected with said HIV virus from dying, was calculated according to the following formula:
[(ODT)HIV−(ODC)HIV][/(ODC)MOCK−(ODC)HIV]
Based on EC50 which is the concentration of Test Compound making the calculated inhibitory rate 50%, anti-HIV activity was evaluated.
(§1) The results of HIV protease inhibitory activity and anti-HIV activity of the compound of the present invention evaluated by the above-mentioned methods were shown in Table 1, together with the results of Compound of Reference Example. In Table 1, HIV protease inhibitory activity is shown as the inhibitory rate when the final concentration of Test Compound in the reaction solution was 5 μM, and the values in parentheses correspond to the inhibitory rate when the final concentration of Test Compound in the reaction solution was 50 nM.

recombinant HIV protease = target: T1, recombinant HIV protease (Human immunodeficiency virus type 1 group M subtype B, UniProt P12497); assay: HIV protease inhibitory activity (cleavage of synthetic nonapeptide substrate, reverse phase HPLC); assay type: biochemical; settings: pH5.5, 37° C., 60 minutes; for Inhibition of HIV protease (inhibitory rate) / inhibition at 5 µM: final concentration of Test Compound 5 μM; for inhibition at 5 µM: read-out: Inhibition of HIV protease (inhibitory rate)
T1 construct: Instead of natural HIV protease, recombinant HIV protease already reported in the literature
Procedure: HIV protease inhibitory activity of the compounds of the present invention [Compounds of Working Examples 1-7] was evaluated according to the test method already reported in the literature (Journal of Synthetic Organic Chemistry, Japan, 52,403-412 (1994), Japanese Patent Unexamined Publication No. 1993-170722, etc.). In addition, using Compounds of Reference Examples 1-4, similar test was carried out.
Instead of natural HIV protease, recombinant HIV protease already reported in the literature (cf. Science, 230, 949 (1985)) was used for the evaluation of HIV protease inhibitory activity (cf. Japanese Patent Unexamined Publication No. 1993-170722, etc.). As the substrate of said recombinant HIV protease, synthetic nonapeptide substrate (Ac-Arg-Ala-Ser-Gln-Asn-Tyr-Pro-Val-Val-NH2 trifluoroacetate) was used, and protease activity was determined.
Fifteen μl of the reaction solution containing 100 mM (final concentration) of MES buffer solution (pH5.5), 40 mM of said substrate, 9.2 μg of said recombinant HIV protease, and various concentration of Test Compound (for example, Test Compound was previously dissolved in DMSO, etc.) was used, and the reaction was started after said recombinant HIV protease had been added to the reaction solution. The reaction was carried out at 37° C. for 60 minutes, and then, the reaction was stopped by addition of 15 μl of acetonitrile. The amount of the peptide fragment produced by cleaving the substrate between -Tyr . . . Pro- of said substrate was determined according to the internal standard method of reverse phase HPLC. When the concentration of test compound was zero, protease activity was defined as 100%; when the peptide fragment was not detected, remaining protease activity was defined as 0%; and remaining protease activity was calculated based on the determined concentration of the peptide fragment. When the remaining protease activity was 0%, inhibition rate which indicates activity inhibiting HIV protease was defined as 100%, and the inhibition rate was defined according to the value taken the remaining protease activity indicated by said percentage from 100%.
as §1

[2] = Human immunodeficiency virus 1, 144 h
[3] = final concentration of Test Compound 50 nM

| Compound | EC50 [1, 2] [nM] | Inhibition of HIV protease (inhibitory rate, values in parentheses) (recombinant HIV protease; [3]) | Inhibition of HIV protease (inhibitory rate) (recombinant HIV protease) [%] | further results |
| --- | --- | --- | --- | --- |
| Cc1cn([C@H]2C[C@H](N=[N+]=[N-])[C@@H](CO)O2)c(=O)[nH]c1=O [AZT, 3′-azido-3′-deoxythymidine, reference compound] | 11 |  |  |  |
| CC(C)(C)NC(=O)[C@@H]1CSCN1C(=O)[C@@H](O)[C@H](Cc1ccccc1)NC(=O)CC(C)(C)C(=O)O [Ref. Ex. 1, (R)-N-t-butyl-3-[(2S,3S)-3-(3,3-dimethylsuccinyl)amino-2-hydroxy-4-phenylbutyryl]-1,3-thiazolidine-4-carboxamide] |  | (20%) | 93 |  |
| CC(C)(C)NC(=O)[C@H]1N(C(=O)[C@@H](O)[C@H](Cc2ccccc2)NC(=O)CC(C)(C)C(=O)O)CSC1(C)C [Ref. Ex. 2, (R)-N-t-butyl-3-[(2S,3S)-3-(3,3-dimethylsuccinyl)amino-2-hydroxy-4-phenylbutyryl]-5,5-dimethyl-1,3-thiazolidine-4-carboxamide] |  | (76%) | 99 |  |
| Cc1ccccc1CNC(=O)[C@@H]1CSCN1C(=O)[C@@H](O)[C@H](Cc1ccccc1)NC(=O)CC(C)(C)C(=O)O [Ref. Ex. 3, (R)-N-(2-methylbenzyl)-3-[(2S,3S)-3-(3,3-dimethylsuccinyl)amino-2-hydroxy-4-phenylbutyryl]-1,3-thiazolidine-4-carboxamide] |  |  | 87 |  |
| Cc1ccccc1CNC(=O)[C@H]1N(C(=O)[C@@H](O)[C@H](Cc2ccccc2)NC(=O)CC(C)(C)C(=O)O)CSC1(C)C [Ref. Ex. 4, (R)-N-(2-methylbenzyl)-3-[(2S,3S)-3-(3,3-dimethylsuccinyl)amino-2-hydroxy-4-phenylbutyryl]-5,5-dimethyl-1,3-thiazolidine-4-carboxamide] |  | (78%) | 100 |  |
| Cc1ccccc1CNC(=O)[C@@H]1CSCN1C(=O)[C@@H](O)[C@H](Cc1ccccc1)NC(=O)CC(C)(C)C(=O)OC[C@H]1O[C@@H](n2cc(C)c(=O)[nH]c2=O)CC1N=[N+]=[N-] (some centres unmarked) [Working Ex. 4] |  |  | 11 | EC50 [1]: 3.8 nM |
| Cc1ccccc1CNC(=O)[C@@H]1CSCN1C(=O)[C@@H](O)[C@H](Cc1ccccc1)NC(=O)C(C)C(C)C(=O)OC[C@H]1O[C@@H](n2cc(C)c(=O)[nH]c2=O)CC1N=[N+]=[N-] (stereo partly drawn) [Working Ex. 5, {(2S,5R)-3-azido-5-[5-methyl-2,4-dioxo-3,4-dihydro-1(2H)-pyrimidinyl]tetrahydro-2-furanyl}methyl 4-([(1S,2S)-1-benzyl-2-hydroxy-3-((4R)-4-([(2-methylbenzyl)amino]carbonyl}-1,3-thiazolidin-3-yl)-3-oxopropyl]amino)-2,3-dimethyl-4-oxobutanoate] | 8.9 |  |  | inhibition at 5 µM (recombinant HIV protease; pH 5.5): 57% |
| Cc1ccccc1CNC(=O)[C@H]1N(C(=O)[C@@H](O)[C@H](Cc2ccccc2)NC(=O)CC(C)(C)C(=O)OC[C@H]2O[C@@H](n3cc(C)c(=O)[nH]c3=O)CC2N=[N+]=[N-])CSC1(C)C (some centres unmarked) [Working Ex. 6] |  |  | 83 | EC50 [1]: 0.24 nM |
| Cc1ccccc1CNC(=O)[C@H]1N(C(=O)[C@@H](O)[C@H](Cc2ccccc2)NC(=O)C(C)C(C)C(=O)OC[C@H]2O[C@@H](n3cc(C)c(=O)[nH]c3=O)CC2N=[N+]=[N-])CSC1(C)C (stereo partly drawn) [Working Ex. 7, {(2S,5R)-3-azido-5-[5-methyl-2,4-dioxo-3,4-dihydro-1(2H)-pyrimidinyl]tetrahydro-2-furanyl}methyl 4-([(1S,2S)-1-benzyl-3-((4R)-5,5-dimethyl-4-{[(2-methylbenzyl)amino]carbonyl}-1,3-thiazolidin-3-yl)-2-hydroxy-3-oxopropyl]amino}-2,3-dimethyl-4-oxobutanoate] | 7.3 |  |  | inhibition at 0.05 µM (recombinant HIV protease; pH 5.5, final concentration of Test Compound 50 nM, read-out: Inhibition of HIV protease (inhibitory rate, values in parentheses)): 39%; inhibition at 5 µM (recombinant HIV protease; pH 5.5): 96% |
